Source: PubChem BioAssay AID1745844 (Carcinogenic Potency Database (CPDB), 2022)
Several values for one entry are separate records, joined by “and”; a condition that tells them apart may be missing. Identical values can stand only once. Activity calls are given as the source filed them. The rule behind the calls is not given here.

Test system: rodent lifetime carcinogenesis bioassay, tumor incidence TD50
Test: chronic cancer bioassays in animals – CPDB, compiled studies (AID 1745844)

With O=C1CN(N=Cc2ccc([N+](=O)[O-])o2)C(=O)N1 the TD50 (mouse, strain B6C3F1, females, in feed, site: cervix uteri, lesion: leiomyosarcoma, dosed 64 weeks, study length 64 weeks) was 4000 mg/kg/day (inactive), the TD50 (mouse, strain B6C3F1, females, in feed, site: liver, lesion: hepatocellular adenoma + hepatocellular carcinoma + neoplastic nodule, dosed 103 weeks, study length 105 weeks) was 2330 mg/kg/day and the TD50 (mouse, strain B6C3F1, females, in feed, site: ovary, lesion: granulosa-cell tumor, benign + granulosa-cell tumor, malignant + mixed tumor, benign + tubular adenoma, dosed 103 weeks, study length 105 weeks) was 866 mg/kg/day. The TD50 (mouse, strain B6C3F1, females, in feed, site: ovary, lesion: granulosa-cell tumor, benign + granulosa-cell tumor, malignant, dosed 103 weeks, study length 105 weeks) was 2560 mg/kg/day, the TD50 (mouse, strain B6C3F1, females, in feed, site: ovary, lesion: granulosa-cell tumor, benign, dosed 103 weeks, study length 105 weeks) was 8470 mg/kg/day and the TD50 (mouse, strain B6C3F1, females, in feed, site: ovary, lesion: granulosa-cell tumor, dosed 64 weeks, study length 64 weeks) was 4020 mg/kg/day (inactive). The TD50 (mouse, strain B6C3F1, females, in feed, site: ovary, lesion: mixed tumor, benign + tubular adenoma, dosed 103 weeks, study length 105 weeks) was 1400 mg/kg/day, the TD50 (mouse, strain B6C3F1, females, in feed, site: ovary, lesion: mixed tumor, benign, dosed 103 weeks, study length 105 weeks) was 3380 mg/kg/day and the TD50 (mouse, strain B6C3F1, females, in feed, site: ovary, lesion: tubular adenoma, dosed 103 weeks, study length 105 weeks) was 2530 mg/kg/day. The carcinogen call (mouse, strain B6C3F1, males, in feed, site: any site (literature study), lesion: several types, types named in the paper, dosed 103 weeks, study length 105 weeks) was “negative (inactive)”, the carcinogen call (mouse, strain BDF1, females, in feed, site: any site (literature study), lesion: several types, types named in the paper, dosed 104 weeks, study length 104 weeks) was “negative (inactive)” and the carcinogen call (mouse, strain BDF1, females, in feed, site: liver, lesion: hemangioma, dosed 104 weeks, study length 104 weeks) was “negative (inactive)”. For the same compound, the carcinogen call (mouse, strain BDF1, females, in feed, site: lung, lesion: adenocarcinoma, dosed 104 weeks, study length 104 weeks) was “negative (inactive)”, the carcinogen call (mouse, strain BDF1, males, in feed, site: any site (literature study), lesion: several types, types named in the paper, dosed 104 weeks, study length 104 weeks) was “negative (inactive)” and the carcinogen call (mouse, strain BDF1, males, in feed, site: liver, lesion: adenoma, dosed 104 weeks, study length 104 weeks) was “negative (inactive)”. The carcinogen call (mouse, strain BDF1, males, in feed, site: liver, lesion: hemangioma, dosed 104 weeks, study length 104 weeks) was “negative (inactive)”, the TD50 (mouse, strain BDF1, males, in feed, site: lung, lesion: adenoma, dosed 104 weeks, study length 104 weeks) was 53900 mg/kg/day (inactive) and the TD50 (mouse, strain Charles River CD1, females, in feed, site: liver, lesion: hemangioma, dosed 93 weeks, study length 100 weeks) was 4460 mg/kg/day (inactive). For the same compound, the carcinogen call (mouse, strain Charles River CD1, females, in feed, site: liver, lesion: hemangiosarcoma, dosed 93 weeks, study length 100 weeks) was “negative (inactive)”, the carcinogen call (mouse, strain Charles River CD1, females, in feed, site: liver, lesion: hepatocellular adenoma, dosed 93 weeks, study length 100 weeks) was “negative (inactive)” and the carcinogen call (mouse, strain Charles River CD1, females, in feed, site: lung, lesion: alveolar-cell adenoma, dosed 93 weeks, study length 100 weeks) was “negative (inactive)”. For the same compound, the carcinogen call (mouse, strain Charles River CD1, females, in feed, site: lung, lesion: alveolar-cell carcinoma, dosed 93 weeks, study length 100 weeks) was “negative (inactive)”, the TD50 (mouse, strain Charles River CD1, males, in feed, site: all sites, lesion: myeloid leukemia, dosed 93 weeks, study length 100 weeks) was 588 mg/kg/day (inactive) and the carcinogen call (mouse, strain Charles River CD1, males, in feed, site: liver, lesion: hemangiosarcoma, dosed 93 weeks, study length 100 weeks) was “negative (inactive)”. The TD50 (mouse, strain Charles River CD1, males, in feed, site: liver, lesion: hepatocellular adenoma, dosed 93 weeks, study length 100 weeks) was 1200 mg/kg/day (inactive), the carcinogen call (mouse, strain Charles River CD1, males, in feed, site: liver, lesion: hepatocellular carcinoma, dosed 93 weeks, study length 100 weeks) was “negative (inactive)” and the TD50 (mouse, strain Charles River CD1, males, in feed, site: lung, lesion: alveolar-cell adenoma, dosed 93 weeks, study length 100 weeks) was 833 mg/kg/day (inactive). The TD50 (mouse, strain Charles River CD1, males, in feed, site: lung, lesion: alveolar-cell carcinoma, dosed 93 weeks, study length 100 weeks) was 17000 mg/kg/day (inactive), the carcinogen call (rat, strain Charles River CD (Sprague-Dawley), females, in feed, site: any site (literature study), lesion: malignant tumor, dosed 104 weeks, study length 104 weeks) was “negative (inactive)” and the carcinogen call (rat, strain Charles River CD (Sprague-Dawley), females, in feed, site: any site (literature study), lesion: one or several types, types not named, dosed 104 weeks, study length 104 weeks) was “negative (inactive)”. For the same compound, the carcinogen call (rat, strain Charles River CD (Sprague-Dawley), females, in feed, site: mammary gland, lesion: several types, types named in the paper, dosed 104 weeks, study length 104 weeks) was “negative (inactive)”, the TD50 (rat, strain Charles River CD (Sprague-Dawley), males, in feed, site: any site (literature study), lesion: malignant tumor, dosed 104 weeks, study length 104 weeks) was 1200 mg/kg/day (inactive) and the carcinogen call (rat, strain Charles River CD (Sprague-Dawley), males, in feed, site: any site (literature study), lesion: one or several types, types not named, dosed 104 weeks, study length 104 weeks) was “negative (inactive)”. The TD50 (rat, strain Charles River CD (Sprague-Dawley), males, in feed, site: mammary gland, lesion: fibroadenoma, dosed 104 weeks, study length 104 weeks) was 878 mg/kg/day (inactive), the TD50 (rat, strain Fischer 344, females, in feed, site: clitoral gland, lesion: adenoma, dosed 103 weeks, study length 105 weeks) was 93.7 mg/kg/day (inactive) and the TD50 (rat, strain Fischer 344, males, in feed, site: kidney, lesion: tubule adenoma + tubule carcinoma, dosed 103 weeks, study length 105 weeks) was 163 mg/kg/day and 698 mg/kg/day. The TD50 (rat, strain Fischer 344, males, in feed, site: liver, lesion: hepatocellular adenoma + hepatocellular carcinoma + neoplastic nodule, dosed 103 weeks, study length 105 weeks) was 332 mg/kg/day, the TD50 (rat, strain Fischer 344, males, in feed, site: subcutaneous tissue, lesion: fibroma, dosed 103 weeks, study length 105 weeks) was 303 mg/kg/day and the carcinogen call (rat, strain Fischer 344, males, in feed, site: urinary bladder, lesion: one or several types, types not named, dosed 104 weeks, study length 104 weeks) was “negative (inactive)”. The TD50 (rat, strain Holtzman albino (Sprague-Dawley derived), females, in feed, site: mammary gland, lesion: fibroadenoma, dosed 36 weeks, study length 54 weeks) was 120 mg/kg/day (inactive), the TD50 (rat, strain Holtzman albino (Sprague-Dawley derived), females, in feed, site: mammary tissue, wider than the gland, lesion: one or several types, types not named, dosed 44 weeks, study length 60 weeks) was 214 mg/kg/day (inactive) and the TD50 (rat, strain Sprague-Dawley, females, in feed, site: any site (literature study), lesion: several types, types named in the paper, dosed 75 weeks, study length 80 weeks) was 185 mg/kg/day (inactive). The TD50 (rat, strain Sprague-Dawley, females, in feed, site: any site (literature study), lesion: several types, types named in the paper, dosed 104 weeks, study length 104 weeks) was 64.2 mg/kg/day and the TD50 (rat, strain Sprague-Dawley, females, in feed, site: mammary gland, lesion: fibroadenoma, dosed 104 weeks, study length 104 weeks) was 54.3 mg/kg/day.

Compound CN(CCO)N=O has a TD50 (rat, strain Fischer 344, males, by gavage, site: liver, lesion: hemangiosarcoma, dosed 69 weeks, study length 69 weeks) of 8.97 mg/kg/day, a TD50 (rat, strain Fischer 344, males, by gavage, site: liver, lesion: hepatocellular carcinoma, dosed 69 weeks, study length 69 weeks) of 1.29 mg/kg/day and a TD50 (rat, strain Fischer 344, males, by gavage, site: nasal cavity, lesion: squamous-cell carcinoma, dosed 69 weeks, study length 69 weeks) of 2.06 mg/kg/day. It also gave a TD50 (rat, strain Fischer 344, males, by gavage, site: nasal cavity, lesion: squamous-cell papilloma, dosed 69 weeks, study length 69 weeks) of 8.97 mg/kg/day.

For c1ccncc1, the TD50 (mouse, strain B6C3F1, females, in drinking water, site: all sites, lesion: hemangioma + hemangiosarcoma, dosed 104 weeks, study length 104 weeks) was 690 mg/kg/day, the TD50 (mouse, strain B6C3F1, females, in drinking water, site: all sites, lesion: hemangioma, dosed 104 weeks, study length 104 weeks) was 868 mg/kg/day and the TD50 (mouse, strain B6C3F1, females, in drinking water, site: any site (literature study), lesion: several types, types named in the paper, dosed 104 weeks, study length 104 weeks) was 338 mg/kg/day. It also gave a TD50 (mouse, strain B6C3F1, females, in drinking water, site: liver, lesion: hepatoblastoma + hepatocellular carcinoma, dosed 104 weeks, study length 104 weeks) of 27.2 mg/kg/day, a TD50 (mouse, strain B6C3F1, females, in drinking water, site: liver, lesion: hepatoblastoma, dosed 104 weeks, study length 104 weeks) of 132 mg/kg/day and a TD50 (mouse, strain B6C3F1, females, in drinking water, site: liver, lesion: hepatocellular adenoma + hepatoblastoma + hepatocellular carcinoma, dosed 104 weeks, study length 104 weeks) of 150 mg/kg/day. The TD50 (mouse, strain B6C3F1, females, in drinking water, site: liver, lesion: hepatocellular adenoma, dosed 104 weeks, study length 104 weeks) was 41.9 mg/kg/day, the TD50 (mouse, strain B6C3F1, females, in drinking water, site: liver, lesion: hepatocellular carcinoma, dosed 104 weeks, study length 104 weeks) was 41.6 mg/kg/day and the TD50 (mouse, strain B6C3F1, females, in drinking water, site: lung, lesion: alveolar/bronchiolar adenoma + alveolar/bronchiolar carcinoma, dosed 104 weeks, study length 104 weeks) was 1990 mg/kg/day. It also gave a TD50 (mouse, strain B6C3F1, males, in drinking water, site: any site (literature study), lesion: several types, types named in the paper, dosed 103 weeks, study length 103 weeks) of 25700 mg/kg/day, a TD50 (mouse, strain B6C3F1, males, in drinking water, site: liver, lesion: hepatoblastoma + hepatocellular carcinoma, dosed 103 weeks, study length 103 weeks) of 22.1 mg/kg/day and a TD50 (mouse, strain B6C3F1, males, in drinking water, site: liver, lesion: hepatoblastoma, dosed 103 weeks, study length 103 weeks) of 68.1 mg/kg/day. For the same compound, the TD50 (mouse, strain B6C3F1, males, in drinking water, site: liver, lesion: hepatocellular adenoma + hepatoblastoma + hepatocellular carcinoma, dosed 103 weeks, study length 103 weeks) was 496 mg/kg/day, the TD50 (mouse, strain B6C3F1, males, in drinking water, site: liver, lesion: hepatocellular adenoma, dosed 103 weeks, study length 103 weeks) was 488 mg/kg/day and the TD50 (mouse, strain B6C3F1, males, in drinking water, site: liver, lesion: hepatocellular carcinoma, dosed 103 weeks, study length 103 weeks) was 28.6 mg/kg/day. For the same compound, the TD50 (rat, strain Fischer 344, females, in drinking water, site: all sites, lesion: mononuclear-cell leukemia, dosed 104 weeks, study length 104 weeks) was 31.2 mg/kg/day, the TD50 (rat, strain Fischer 344, females, in drinking water, site: any site (literature study), lesion: several types, types named in the paper, dosed 104 weeks, study length 104 weeks) was 32.9 mg/kg/day and the TD50 (rat, strain Fischer 344, males, in drinking water, site: any site (literature study), lesion: several types, types named in the paper, dosed 103 weeks, study length 103 weeks) was 31 mg/kg/day. For the same compound, the TD50 (rat, strain Fischer 344, males, in drinking water, site: kidney, lesion: tubule adenoma + tubule carcinoma, dosed 103 weeks, study length 103 weeks) was 67.3 mg/kg/day and 74.6 mg/kg/day, the TD50 (rat, strain Fischer 344, males, in drinking water, site: kidney, lesion: tubule adenoma, dosed 103 weeks, study length 103 weeks) was 73.7 mg/kg/day and 75.6 mg/kg/day and the TD50 (rat, strain Fischer 344, males, in drinking water, site: liver, lesion: hepatocellular adenoma + hepatoblastoma + hepatocellular carcinoma, dosed 103 weeks, study length 103 weeks) was 160 mg/kg/day. For the same compound, the TD50 (rat, strain Wistar, males, in drinking water, site: any site (literature study), lesion: several types, types named in the paper, dosed 103 weeks, study length 103 weeks) was 7.14 mg/kg/day, the TD50 (rat, strain Wistar, males, in drinking water, site: testis, lesion: interstitial-cell adenoma, bilateral + interstitial-cell adenoma, dosed 103 weeks, study length 103 weeks) was 22.4 mg/kg/day and the TD50 (rat, strain Wistar, males, in drinking water, site: thyroid gland, lesion: follicular-cell adenoma, bilateral + follicular-cell adenoma, dosed 103 weeks, study length 103 weeks) was 38.4 mg/kg/day.
